Laboratory results taken from patent US20260364174A1, “Purpurin Analogs for Use in Photodynamic Therapy” (RMW Cho Group Limited, priority 2023, published 2026).

Legend:
[1] = system: SKOV3 ovarian cancer cells; assay: Phototoxicity: % viable SKOV3 cells (AlamarBlue) after incubation with photosensitizer and 680 nm LED activation; assay type: cell-based; settings: Homo sapiens, SK-OV-3, light or radiation study, 24 h uptake, 50 mW/cm^2 for 5 mins (15 J/cm^2), viability after further 24 h
Procedure: (§1) Photosensitizers (e.g. purpurin analogue, chlorin e4 disodium (provided by Advanced Molecular Technologies, Scoresby) or Talaporfin sodium (purchased from Focus Bioscience cat #HY-16477-5MG)) were resuspended in 100% dimethylsulfoxide (DMSO) at a concentration of 5.5 mM. Samples were stored at 4 °C protected from light.
(§2) For in vitro experiments, photosensitizers (stock solution 5.5 mM in 100% DMSO) were diluted 1:100 in concentrated excipient solution (final 55 μM photosensitizer in 10% w/v Kollidon-12, 42.4% w/v polysorbate 80, 40% w/v ethanol, 1.0% DMSO). Serial dilutions were prepared in cell culture media (Dulbecco's Modified Eagle Medium/Nutrient Mixture F-12 (DMEM/F-12)) supplemented with 10% v/v Fetal Bovine Serum, 100 U/mL penicillin, 100 μg/mL streptomycin and the same excipient solution at a constant 1:55 dilution.
(§3) Human ovarian cancer cell line SKOV3 (ATCC #HTB-77) was maintained in Dulbecco's Modified Eagle Medium/Nutrient Mixture F-12 (DMEM/F-12), supplemented with […] Fetal Bovine Serum, 100 U/mL penicillin and 100 μg/mL streptomycin. Monolayer cultures were grown in a humidified incubator at 37 °C with 5% CO2. Once cells had reached ~80% confluence, spent media was replaced with media containing photosensitizer at the required concentration and cells were incubated for the desired period of time to allow photosensitizer uptake.
(§4) All data were analysed using GraphPad PRISM v8.3.1 (549) (GraphPad Software, CA). Spectral absorbance and viability measurements were normalized in the range 0-100%, with a minimum of 0 and a maximum value determined from the dataset. Dose response was determined using a sigmoidal four-point non-linear regression with variable slope, and IC10 or IC90 calculated for each compound. All data are shown as mean±SD (where appropriate).
(§5) SKOV3 cells were seeded in 96-well black wall plates (Greiner #655090) at a cell density of 5000 cells in 100 μl culture medium per well. On reaching ~60% confluence, media was aspirated and replaced with fresh media containing the relevant purpurin analogue from 0-100 μM in DMSO. Cells were incubated for a further 24 hours, allowing uptake of purpurin analogues.
To test for phototoxicity, cells incubated with purpurin analogues ([…] in DMSO) had culture media replaced after 24 hours (as above) and were then exposed to a 680 nm light-emitting diode (LED) panel (Invion) with optical power density at 50 mW/cm^2 for 5 mins (total 15 J/cm^2). Laser and LED exposure induce an equivalent response in relation to phototoxicity. Following activation, cells were cultured for a further 24 hours. Media was then replaced with fresh media containing AlamarBlue, and % viable cells remaining assessed as above. Controls included cells treated with purpurin analogues but not activated by laser light; cells without purpurin analogue treatment but with laser light; and untreated controls. All measurements were made in quadruplicate.
(§6) The phototoxicity and inherent cytotoxicity (i.e. “dark toxicity”) of purpurin analogues were assessed as previously using SKOV3 ovarian cancer cells. For comparative purposes, purpurin analogues were compared against chlorin e4 disodium and Talaporfin sodium, a clinically approved photosensitizer used in the photodynamic treatment of lung cancers. Phototoxicity IC90 values and dark toxicity IC10 values were calculated using a log[inhibitor]-vs normalized response dose curve with variable slope, using the formula Y=100/(1+(IC90/X)^HillSlope (phototoxicity IC90)) or Y=100/(1+(IC10/X)^HillSlope (dark toxicity IC10)).

[2] = system: SKOV3 ovarian cancer cells; assay: Inherent cytotoxicity (dark toxicity): % viable SKOV3 cells (AlamarBlue) without light; assay type: cell-based, human; settings: 24 h incubation, no light
Procedure: as §1, §2, §3, §4, §5
To test for inherent cytotoxicity (i.e. “dark toxicity”) of the purpurin analogues, the culture media was replaced after 24 hours with fresh media containing 10% (v/v) AlamarBlue Cell Viability Reagent (ThermoFisher) and cells incubated at 37 °C for 6 hours. Untreated cells were used as a control. Fluorescence (Ex 555 nm/Em 596 nm) was measured using a CLARIOstar Plus Microplate Readear (BMG Labtech), and cytotoxicity assessed according to the % viable cells remaining. All measurements were made in quadruplicate.
as §6

[3] = system: SKOV3 ovarian cancer cells; assay: Therapeutic index (phototoxicity IC90 vs dark toxicity IC10); assay type: cell-based, human
Procedure: as §6
To evaluate the therapeutic potential of purpurin analogues, the therapeutic index (TI) was calculated. TI provides a quantitative measurement to describe relative drug safety, by comparing the drug concentration required for desirable effects versus the concentration resulting in undesirable off-target toxicity. TI was calculated using phototoxicity IC90 vs dark toxicity IC10.

[4] = system: indomethacin-induced gastric lesions; settings: rats; cited from earlier work
[5] = system: TAA- or CCl4-induced acute liver injuries; settings: mice; cited from earlier work

SMILES | IC90 [1] [nM] | Dark toxicity (IC10) [2] [nM] | Therapeutic Index [3] | protective effect against indomethacin-induced gastric lesions [4] | protective effect against TAA- or CCl4-induced acute liver injuries [5]
C=Cc1c(C)c2cc3nc(c(C)c4[nH]c(cc5nc(cc1[nH]2)C(C)=C5CC)c(C)c4C(=O)O)[C@@H](CCC(=O)O)[C@@H]3C [Chlorin e4 disodium, chlorin e4 disodium, reference compound] | 21300 | 40230 | 1.89 | – | –
C=Cc1c(C)c2cc3nc(c(C)c4nc(cc5[nH]c(cc1[nH]2)c(C)c5CC)C(C)=C4C(=O)O)[C@@H](CCC(=O)O)[C@@H]3C [Chlorin e4] | – | – | – | protective effect against indomethacin-induced gastric lesions in rats | protective effect
CCCCCCN1C(=O)c2c3nc(cc4[nH]c(cc5nc(cc6[nH]c2c(c6C)C1=O)C(CC)=C5C)c(COC(=O)NCCC[P+](c1ccccc1)(c1ccccc1)c1ccccc1)c4C)[C@@H](C)[C@@H]3CCC(=O)OC [Compound 1, purpurin 18 13-(N-(3-triphenylphosphoniumpropyl)bromide)carbamate N-hexylimide methyl ester] | 46 | 79630 | 1731.09 | – | –
CCCCCCN1C(=O)c2c3nc(cc4[nH]c(cc5nc(cc6[nH]c2c(c6C)C1=O)C(CC)=C5C)c(COC(=O)CCCC[P+](c1ccccc1)(c1ccccc1)c1ccccc1)c4C)[C@@H](C)[C@@H]3CCC(=O)OC [Compound 2, purpurin 18 N-hexylimide 13-(oxopentyl)triphenylphosphonium bromide] | 27 | 77630 | 2875.19 | – | –
CCC1=C(C)c2cc3[nH]c(cc4nc(c5c6[nH]c(cc1n2)c(C)c6C(=O)N(CCOCCOC)C5=O)[C@@H](CCC(=O)OC)[C@@H]4C)c(C)c3COC(=O)NCCC[P+](c1ccccc1)(c1ccccc1)c1ccccc1 [Compound 3, purpurin 18 13-(N-(3-triphenylphosphoniumpropyl)bromide)carbamate N-(2-(2-methoxyethoxy)ethyl)imide methyl ester] | 102 | 50840 | 498.43 | – | –
C=Cc1c(C)c2cc3nc(c4c5[nH]c(cc6nc(cc1[nH]2)C(C)=C6CC)c(C)c5C(=O)N(CCC[P+](c1ccccc1)(c1ccccc1)c1ccccc1)C4=O)[C@@H](CCC(=O)N(C)CCOCCOC)[C@@H]3C [Compound 4, purpurin 18 N-(3-triphenylphosphoniumpropylbromide)imide N-(2-(2-methoxyethoxy)ethyl)-N-methyl-amide] | 10 | 49910 | 4991.00 | – | –
C=Cc1c(C)c2cc3nc(c4c5[nH]c(cc6nc(cc1[nH]2)C(C)=C6CC)c(C)c5C(=O)OC4=O)[C@@H](CCC(=O)NCCC[P+](c1ccccc1)(c1ccccc1)c1ccccc1)[C@@H]3C [Compound 5, purpurin 18 (N-(3-triphenylphosphoniumpropyl)bromide)amide] | 5 | 49880 | 9976.00 | – | –
C=Cc1c(C)c2cc3nc(c4c5[nH]c(cc6nc(cc1[nH]2)C(C)=C6CC)c(C)c5C(=O)N(CCOCCOC)C4=O)[C@@H](CCC(=O)NCCC[P+](c1ccccc1)(c1ccccc1)c1ccccc1)[C@@H]3C [Compound 6, purpurin 18 (N-(3-triphenylphosphoniumpropyl)bromide)amide N-(2-(2-methoxyethoxy)ethyl)imide] | 9 | 51070 | 5674.44 | – | –
CCCCCCN1C(=O)c2c3nc(cc4[nH]c(cc5nc(cc6[nH]c2c(c6C)C1=O)C(CC)=C5C)c(CN(C)C(=O)CCCC[P+](c1ccccc1)(c1ccccc1)c1ccccc1)c4C)[C@@H](C)[C@@H]3CCC(=O)OC [Compound 7, purpurin 18 N-hexylimide 13-(N-methyl-5-triphenylphosphonium bromidepentanamide) methyl ester] | 21 | 49400 | 2352.38 | – | –
C=Cc1c(C)c2cc3nc(c(CC(=O)N[C@@H](CC(=O)O)C(=O)O)c4[nH]c(cc5nc(cc1[nH]2)C(C)=C5CC)c(C)c4C(=O)O)[C@@H](CCC(=O)O)[C@@H]3C [Talaporfin sodium, reference compound] | – | 11100 | 0.49 | – | –
